In BindingDB's records for doi:10.1016/j.bmc.2019.115214 (Nankai University, 2020):

experiment: Inhibition of HIV1 gp41- induced cell-cell fusion between viral envelope expressed in human HL2/3 cells to CD4/CCR5 receptor expressed TZM-bl cells after 6 hrs by luciferase assay

Row | Substance | IC50 [nM]
1 | H-YTSLIHSLIEEQNQQEKNEQELLELDKWALWNWF-OH | 2.5
2 | H-RIQQIEQKIHHIEQRIQQIEQLLQLTVWGIKQLQARIL-OH | 251
3 | H-RIQQIEQKIHHIEQRIQQIEQRISGIVQQQNNLLRIEAQQHLLQLTVWGIKQLQARIL-OH | 82
4 | H-RIQQIEQKIHHIEQRIQQIEQRIEAQQHLLQLTVWGIKQLQARIL-OH | 39
